Entries after “also recorded” stand apart in the source; their conditions may differ. Like-named read-outs stand apart in the source and are kept apart here.
Tests used:
LPA1 [1] = biological target: T1, LPA1 (Mus musculus, UniProt P61793); assay: In vivo brain LPA1 receptor occupancy with [3H]-OPC3497
T1 construct: from tissue; host or cells: mouse brain (homogenate; forebrain of dosed C57BL6/N mice in the in vivo studies)
Protocol: [^3H]-OPC3497 was diluted to 9.8 µCi/mL in saline and administered via IV injection to the lateral tail vein at a dose volume of 5 ml/kg at the times indicated. Mice were euthanized by decapitation, trunk blood collected into K3EDTA tubes and stored on wet ice, each brain rapidly dissected and the forebrain isolated, weighed and placed into a 5 ml polypropylene tube. Tissues were diluted with a 10 × volume of ice-cold binding buffer (50 mM HEPES, 100 mM NaCl, 2 mM EDTA, pH 7.4). Brains were homogenized and 350 µl of the homogenate was filtered over Whatman GF/B filters (GE Life Sciences, Marlborough, MA) pre-wetted with 0.5% polyethyleneimine. Filters were washed with cold 50 mM TRIS–HCl, 154 mM NaCl, 0.05% Tween 20, pH 7.4 twice and dried in an oven (~ 40–50 °C). 5 ml Ultima Gold F scintillation fluid (Perkin Elmer, Boston, MA, Boston, MA) was added to each tube and samples read on a Beckman LS6500 liquid scintillation counter. After all samples were collected, dissected, and filtered, the previously collected blood in K3EDTA tubes was centrifuged (1450 × g, 10 min, 4 °C) to separate plasma.

MOG-EAE mouse model [2] = assay: MOG-EAE mouse model, IBA1 immunostaining of spinal cord; assay type: in vivo; details: 3 mg/kg
Protocol: A lower lumbar segment of spinal cord was transferred from the EM fixative to 30% sucrose overnight and then sectioned using a sliding microtome. The resulting sections were stored in 30% sucrose in 0.1 M Phosphate Buffer pH 7.4 and stored at 4 °C. Free-floating spinal cord sections were rinsed with PBS, blocked with 5% normal goat serum in 0.1% Triton-X/PBS for 2 h, and subsequently incubated with antibodies against IBA1 (Life Technologies, Carlsbad, CA, 1:500) or CD3 (Abcam, Waltham, MA, 1:500) overnight at 4 °C. Sections were then washed 3 times with 0.1% triton-X/PBS and transferred to secondary antibody (1:500, Carlsbad, CA) in 0.1% Triton-X/PBS for 2 h at room temperature. Hoechst 33342 was diluted 1:2000 and added during the final wash step. Sections were stained with 1% Sudan Black in 70% ethanol, and washed 3 × 5 min in PBS. Stained sections were mounted onto slides and evaluated using a Nikon A1R confocal microscope and analyzed using Nikon NIS Elements software. Regions of interest (ROIs) were selected based on the largest contiguous lesion defined by Hoechst and Sudan Black co-staining. […] Cells were counted using the automatic General Analysis function in NIS Elements.
Supplemental Figure 9. […] Left, IBA1^+ area was quantified and normalized to Hoechst counts (* p = 0.0166, *** p=0.0002, mean ± SEM, ANOVA with Tukey’s, n>4). […]

LPA1 [3] = biological target: T1, LPA1; assay: In vivo brain binding of [3H]-OPC3497 radioligand; details: PIPE-791 dosed orally 2 h prior; 5 and 30 minutes after radioligand
Protocol: Supplemental Figure 3. OPC3497 is a suitable radioligand for evaluating LPA1 receptor occupancy. Following IV administration, [^3H]-OPC3497 binding in mouse brain increased rapidly, peaked 5 minutes post-dose and declined sharply over the evaluation period (2 h).

MOG-EAE mouse model [4] = assay: MOG-EAE mouse model, g-ratios by electron microscopy; assay type: in vivo
Protocol: In control, non-EAE mice, 90.9% of the axons were myelinated (g-ratio < 1). In vehicle treated MOG-EAE mice, only 73.4% of axons were myelinated.
Remyelinated axons canonically have thin myelin[41]. As such, we examined axons with g-ratios ≥ 0.8 but less than 1 as a surrogate measure of a remyelinating axon.
To confirm this, g-ratios in the optic nerve were similarly quantified. […] In non-MOG-EAE mice, 86.4% of the axons were myelinated. […] At 0.3 mg/kg, 85.5% were myelinated. When thinly myelinated axons were quantified, 30.2% in the MOG-treated vehicle group were observed, compared to 50.7% in the non-MOG control.
Study termination was the last day that clinical scores were determined for all study animals (Day 24). Since VEP recordings required several days (Days 21–24), oral dosing continued through perfusion, which was performed on Day 24 or Day 25. On Day 24 or 25, and following completion of VEP recordings, mice were deeply anesthetized with isoflurane anesthesia and whole body perfused with EM grade Karnovsky’s fixative (3% glutaraldehyde, 2% paraformaldehyde in 0.1 M phosphate buffer, pH 7.4; part # 15732-10; Electron Microscopy Sciences, Hatfield, PA). Spinal columns and optic nerves were collected and stored in fixative at 4 °C until further processing. After at 3–5 days in fixative, spinal cords were isolated and dissected from the vertebrae. Approximately 2 mm of the most caudal lumbar region was trimmed and segmented and, along with the optic nerves, shipped to Charles River Laboratories (Durham, NC) for processing for and imaging by electron microscopy.
The blocks were polymerized overnight at ~ 85 °C, and semi-thin sections (~ 1 μm, one per tissue) prepared and stained with toluidine blue using standard protocols. Semi-thin images were evaluated, and the most caudal region was identified as the region of focus for thin sections. Thin sections of ~ 100 nm were prepared using standard protocols and the grids were imaged at 1500 × on a JEOL JEM-1400 + transmission electron microscope fitted with an AMT 16 MP digital camera system. The direct magnification used was 1500 × or 4000 × for spinal cord and optic nerve, respectively.
Digital EM images were analyzed using ImageJ (NIH, Bethesda, MD) measure the circumference of the axon and, when present, the myelin sheath, and g-ratios were calculated. For spinal cord analysis, 4 representative images were analyzed per animal and the results pooled, and the percentages calculated from the animal total. For optic nerve analysis, 1 representative image was analyzed per optic nerve and each optic nerve was treated as a separate data point.

T1 sequence (P61793 whole entry): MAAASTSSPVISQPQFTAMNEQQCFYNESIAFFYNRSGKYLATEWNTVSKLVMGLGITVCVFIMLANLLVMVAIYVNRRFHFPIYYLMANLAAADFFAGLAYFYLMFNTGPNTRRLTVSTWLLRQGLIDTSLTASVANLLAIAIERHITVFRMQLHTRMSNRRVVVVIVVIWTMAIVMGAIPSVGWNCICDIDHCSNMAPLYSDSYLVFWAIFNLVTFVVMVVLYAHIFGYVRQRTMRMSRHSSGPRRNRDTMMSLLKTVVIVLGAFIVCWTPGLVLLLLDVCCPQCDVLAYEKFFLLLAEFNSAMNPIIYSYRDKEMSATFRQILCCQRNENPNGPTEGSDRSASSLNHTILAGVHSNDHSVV

COc1ccc(NC(=O)N(c2ccccc2C(C)C)C2CCC(C(=O)O)CC2)c(OC(F)F)n1 (stereo not drawn) [PIPE-791]
time for which LPA1 occupancy was sustained (LPA1 [1]; 3 mg/kg oral, followed out to 7 days): 24 h
EC50 (LPA1 [1]; once daily for 4 consecutive days (steady state), read-out: unbound brain EC50): 2.4 nM
LPA1 receptor occupancy ED50 (LPA1 [1]; single oral dose 2 h prior to radioligand, mouse brain): 0.17 mg/kg
LPA1 receptor occupancy ED50 (LPA1 [1]; single oral dose 24 h prior to radioligand, mouse brain): 0.19 mg/kg
EC50 (LPA1 [1]; single oral dose, unbound brain concentration versus occupancy, read-out: unbound brain EC50 (Cu, brain)): 2.2 nM
LPA1 receptor occupancy ED50 (LPA1 [1]; steady state: once daily for 4 days, occupancy 2 h after fourth dose): 0.03 mg/kg
level of IBA1+ staining in spinal cord (MOG-EAE mouse model [2]): reduces IBA1^+ area; also recorded: significantly reduced
effect on total [3H]-OPC3497 binding in brain (LPA1 [3]): significantly reduced
myelinated axons, optic nerve (MOG-EAE mouse model [4]; 0.3 mg/kg): 85.5%
thinly myelinated axons, optic nerve (MOG-EAE mouse model [4]; 0.3 mg/kg): 44.7%
myelinated axons, optic nerve (MOG-EAE mouse model [4]; 3 mg/kg): 86.1%
thinly myelinated axons, optic nerve (MOG-EAE mouse model [4]; 3 mg/kg): 50.6%
